Patent US11311533B2, “Opioid receptor antagonist conjugate and use thereof” (SHANGHAI HANMAI BIO-PHARMA CO., LTD., priority 2016, dated 2022)

Experiments:
[1] = target: OPRM1 (Mμ opioid receptor gene) receptor (Homo sapiens, UniProt P35372); assay: cell-based; details: for inhibition at 10 µM: OPRM1, read-out: Inhibition rate (%) of highest concentration (mean ± standard deviation) (N = 2)
Experimental: Cell suspension was inoculated into a 384-well microplate at a density of 15,000 cells per well, and cultured in a 37° C./5% CO2 incubator for at least 18 hours before experiment.
Before the test, the conjugates to be tested was diluted with HBSS buffer (containing 20 mM HEPES) and prepared as 5× solution with a concentration five times of the test solution. […] The concentration of the corresponding control DMSO is 0.1%.
The protocol for preparing agonist detection: cells were inoculated into 384-well microplates, 20 μl of cell suspension per well (containing 15,000 cells); the plate was placed in 37° C./5% CO2 incubator to continue the culture; cells were taken out after 18 hours, and dye was added, 20 μl per well; the plate was incubated in 37° C./5% CO2 incubator for 1 hour and equilibrated at room temperature for 15 minutes; and 10 μl of 5× test solution of agonist was added to each well for RFU value detection.
The protocol for preparing inhibitor detection: cells were inoculated into 384-well microplates, 20 μl of cell suspension per well (containing 15,000 cells); the plate was placed in 37° C./5% CO2 incubator to continue the culture; cells were taken out after 18 hours; for the inhibitor detection, 20 μl of dye was added to the plate, and then 10 μl of prepared conjugate solution was added; the plate was incubated in 37° C./5% CO2 for 1 hour and equilibrate at room temperature for 15 minutes; 12.5 μl of 5× EC80 positive agonist was added for RFU value detection.
The 384-well microplate containing the conjugate solution (5× test concentration), cell plate and pipette tip box were placed in FLIPR (Molecule Devices), and the agonist detection program was run. The overall detection time of the instrument was 120 seconds. 10 μl of agonist was automatically added to the plate at the 21st second. […] (Molecule Devices), and the inhibitor detection program was run. The overall detection time of the instrument was 120 seconds. 12.5 μl of positive agonist was automatically added to the plate at the 21st second.

[2] = system: mice; assay: Mouse hot plate analgesia experiment (antagonism of morphine analgesia, blood-brain barrier study); details: for Average Pain Threshold after Administration (s) Mean ± SD: 60 minutes after administration; for Passage through the blood-brain barrier (concluded from antagonism of the analgesic effect of morphine): mouse hot plate, conjugate subcutaneous after morphine by gavage; for Difference between the pain threshold before and after administration (significance): before vs 60 minutes after administration, Na1037 and Na1041: high-dose groups
Experimental: Six conjugates Na1021, Na1029, Na1045, Na1037, Na1041, and Na1049 were subjected to mouse hot plate analgesia experiments for four times, respectively. In each experiment, mice (JOINN Laboratories (Suzhou)) were randomly divided into four groups (eight per group): one blank control group, one morphine control group, and two other groups which were administered with morphine by gavage first, and then low dose and high dose of the conjugates were subcutaneously injected respectively. The mice were put on a hot plate (55±0.1) ° C. before administration, and the time was recorded immediately. The duration from the beginning on the hot plate to the first hind paw licking was recorded as the reaction time of heat-pain sensation (i.e., pain threshold, the unit is second (s)). The pain threshold was set as 100% analgesia if there was no hind paw licking in 60 seconds. It was recorded as 60 seconds when the time exceeded 60 seconds to prevent burn of foot. The mice were again put on a (55±0.1) ° C. hot plate 60 minutes after the administration of drug and the reaction time of heat-pain sensation was recorded. […] The value of the pain thresholds before and after administration was compared and the percentage of increase in pain threshold was calculated according to the following formula to determine the effect of drug on antagonizing morphine analgesia. Percentage of increase in pain threshold=[(average heat pain threshold after administration−average pain threshold before administration)/average pain threshold before administration]×100%

[3] = system: mice; assay: Anti-constipation study: antagonizing the antidiarrheal effect of loperamide hydrochloride (castor oil diarrhea); assay type: in vivo; details: Table 11: 500 μg/kg + Loperamide Hydrochloride + Castor Oil
Experimental: The anti-constipation study experiment was completed by using the test of antagonizing the antidiarrheal effect of loperamide hydrochloride. The specific experiment process was: the mice were divided into groups randomly, eight mice each group, wherein one group was administered with 0.5 mL of castor oil by gavage, one group was administered with 2 mg/kg loperamide hydrochloride and 0.5 mL of castor oil by gavage, and conjugate test groups were respectively administered with Na1021 (300 nmol/kg), Na1029 (300 nmol/kg), Na1033 (300 nmol/kg) and Na1045 (600 nmol/kg) by gavage first, and then with 2 mg/kg loperamide and 0.5 mL castor oil by gavage.
The mice were divided into groups randomly, eight mice each group, wherein one group was administered with 0.5 mL of castor oil by gavage, one group was administered with 2 mg/kg loperamide and 0.5 mL castor oil by gavage, other groups were respectively administered with different doses of conjugate Na1029 first, then with 2 mg/kg loperamide hydrochloride and 0.5 mL castor oil by gavage.

[4] = 4 μmol/kg subcutaneous + Morphine by gavage
[5] = 20 μmol/kg subcutaneous + Morphine by gavage

Chain of OPRM1 (Mμ opioid receptor gene) receptor (P35372 whole entry): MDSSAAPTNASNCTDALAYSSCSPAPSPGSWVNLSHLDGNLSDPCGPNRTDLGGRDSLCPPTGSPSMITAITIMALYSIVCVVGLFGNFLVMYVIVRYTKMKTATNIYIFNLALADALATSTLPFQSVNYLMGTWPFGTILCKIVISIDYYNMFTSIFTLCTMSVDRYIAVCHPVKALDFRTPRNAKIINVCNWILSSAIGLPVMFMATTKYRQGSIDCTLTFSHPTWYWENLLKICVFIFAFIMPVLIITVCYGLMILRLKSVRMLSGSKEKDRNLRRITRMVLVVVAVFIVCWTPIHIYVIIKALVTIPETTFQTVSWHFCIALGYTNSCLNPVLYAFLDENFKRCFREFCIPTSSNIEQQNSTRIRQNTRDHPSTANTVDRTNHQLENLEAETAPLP

Oc1ccc2c3c1O[C@H]1[C@@H](OCCOCCOCCO[C@H]4CC[C@@]5(O)[C@H]6Cc7ccc(O)c8c7[C@@]5(CCN6CC5CC5)[C@H]4O8)CC[C@@]4(O)[C@@H](C2)N(CC2CC2)CC[C@]314 [Nal053, PEG3-(6-α-naltrexol)2-ether]
IC50 [1]: 250 nM | inhibition at 10 µM [1]: 101.8 ± 0.97%

Oc1ccc2c3c1O[C@H]1[C@@H](OCCOCCOCCOCCO[C@H]4CC[C@@]5(O)[C@H]6Cc7ccc(O)c8c7[C@@]5(CCN6CC5CC5)[C@H]4O8)CC[C@@]4(O)[C@@H](C2)N(CC2CC2)CC[C@]314 [Nal021, PEG4-(6-α-naltrexol)2-ether]
Average Pain Threshold before Administration (s) Mean ± SD ([2]; 4.36 μmol/kg + Morphine group): 20.63 ± 7.07 s | Percentage of Increase in Pain Threshold ([2]; 4.36 μmol/kg + morphine): 172.66% | Average Pain Threshold after Administration (s) Mean ± SD ([2]; 4.36 μmol/kg subcutaneous + Morphine by gavage): 56.25 ± 10.61 s | Average Pain Threshold before Administration (s) Mean ± SD ([2]; 21.8 μmol/kg + Morphine group): 18.63 ± 4.60 s | Percentage of Increase in Pain Threshold ([2]; 21.8 μmol/kg + morphine): 220.72% | Average Pain Threshold after Administration (s) Mean ± SD ([2]; 21.8 μmol/kg subcutaneous + Morphine by gavage): 59.75 ± 0.71 s | Passage through the blood-brain barrier (concluded from antagonism of the analgesic effect of morphine) [2]: cannot pass through the blood-brain barrier | IC50 [1]: 229 nM | inhibition at 10 µM [1]: 100.3 ± 0.56%

COCCOCCOCCOCCOCCOCCOCCOCCO[C@H]1CC[C@@]2(O)[C@H]3Cc4ccc(O)c5c4[C@@]2(CCN3CC2CC2)[C@H]1O5 [Nal041, mPEG8-(6-α-naltrexol)-ether]
Average Pain Threshold before Administration (s) Mean ± SD ([2]; 4 μmol/kg + Morphine group): 14.25 ± 1.75 s | Percentage of Increase in Pain Threshold ([2]; 4 μmol/kg + morphine): 170.18% | Average Pain Threshold after Administration (s) Mean ± SD [2, 4]: 38.5 ± 14.74 s | Average Pain Threshold before Administration (s) Mean ± SD ([2]; 20 μmol/kg + Morphine group): 16.88 ± 6.79 s | Percentage of Increase in Pain Threshold ([2]; 20 μmol/kg + morphine): 30.33% | Average Pain Threshold after Administration (s) Mean ± SD [2, 5]: 22.00 ± 5.12 s | Difference between the pain threshold before and after administration (significance) [2]: not significant | Passage through the blood-brain barrier (concluded from antagonism of the analgesic effect of morphine) [2]: can pass through the blood-brain barrier | IC50 [1]: 210 nM | inhibition at 10 µM [1]: 95.8 ± 1.86%

O=C1CC[C@@]2(O)[C@H]3Cc4ccc(O)c5c4[C@@]2(CCN3CC2CC2)[C@H]1O5 [Naltrexone, naltrexone, reference compound]
Total Number of Diarrhea Times Six Hours after Administration [3]: 14.00 ± 5.76

Oc1ccc2c3c1O[C@H]1[C@H](OCCOCCOCCOCCOCCOCCO[C@@H]4CC[C@@]5(O)[C@H]6Cc7ccc(O)c8c7[C@@]5(CCN6CC5CC5)[C@H]4O8)CC[C@@]4(O)[C@@H](C2)N(CC2CC2)CC[C@]314 [Nal026, PEG6-(6-β-naltrexol)2-ether]
IC50 [1]: 183 nM | inhibition at 10 µM [1]: 100.5 ± 0.26%

COCCOCCOCCOCCOCCOCCO[C@H]1CC[C@@]2(O)[C@H]3Cc4ccc(O)c5c4[C@@]2(CCN3CC2CC2)[C@H]1O5 [Nal037, mPEG6-(6-α-naltrexol)-ether]
Average Pain Threshold before Administration (s) Mean ± SD ([2]; 4 μmol/kg + Morphine group): 19.38 ± 5.21 s | Percentage of Increase in Pain Threshold ([2]; 4 μmol/kg + morphine): 62.54% | Average Pain Threshold after Administration (s) Mean ± SD [2, 4]: 31.50 ± 11.83 s | Average Pain Threshold before Administration (s) Mean ± SD ([2]; 20 μmol/kg + Morphine group): 20.5 ± 3.93 s | Percentage of Increase in Pain Threshold ([2]; 20 μmol/kg + morphine): 1.85% | Average Pain Threshold after Administration (s) Mean ± SD [2, 5]: 20.88 ± 5.87 s | Difference between the pain threshold before and after administration (significance) [2]: not significant | Passage through the blood-brain barrier (concluded from antagonism of the analgesic effect of morphine) [2]: can pass through the blood-brain barrier | IC50 [1]: 225 nM | inhibition at 10 µM [1]: 100.6 ± 0.34%
